Test results: PMC6028563, “Probing Substituents in the 1- and 3-Position: Tetrahydropyrazino-Annelated Water-Soluble Xanthine Derivatives as Multi-Target Drugs With Potent Adenosine Receptor Antagonistic Activity” (Frontiers in Chemistry, 2018)

What was measured:
human A1 AR = target: T1, human A1 AR (Homo sapiens, UniProt P30542); experiment: Radioligand binding assay at human A1 AR vs. [^3H]CCPA; details: for Ki: human (h), CHO cell membranes, n = 3; for selectivity for the human A1 vs. the human A2A AR: ratio of Ki values, human receptors
T1 construct: expressed in transfected cells; host or cells: CHO cells
T1 sequence (P30542 1-326): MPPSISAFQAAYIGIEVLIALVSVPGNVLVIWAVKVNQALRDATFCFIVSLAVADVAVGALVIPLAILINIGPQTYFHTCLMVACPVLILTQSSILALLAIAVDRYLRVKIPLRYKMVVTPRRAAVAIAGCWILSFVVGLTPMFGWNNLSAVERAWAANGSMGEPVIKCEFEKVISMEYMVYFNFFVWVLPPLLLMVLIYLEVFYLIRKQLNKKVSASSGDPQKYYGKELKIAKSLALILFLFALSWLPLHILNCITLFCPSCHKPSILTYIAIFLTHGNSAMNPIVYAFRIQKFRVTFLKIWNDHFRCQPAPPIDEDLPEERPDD
Procedure, shortened: (§1)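 Rat A1 binding used brain cortex membranes with [^3H]CCPA; rat A2A used striatal membranes with [^3H]MSX-2. Human A2B (and other human subtypes) assayed on membranes of CHO cells recombinantly expressing the receptor, A2B versus [^3H]PSB-603.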

rat A1 AR = target: T2, rat A1 AR (Rattus norvegicus, UniProt P25099); experiment: Radioligand binding assay at rat A1 AR (rat brain cortex) vs. [^3H]CCPA; details: rat (r); for Ki: rat brain cortex, n = 3
T2 construct: A1 ARs of rat brain cortical membrane; from tissue; host or cells: rat brain cortex membranes
T2 sequence (P25099 1-326): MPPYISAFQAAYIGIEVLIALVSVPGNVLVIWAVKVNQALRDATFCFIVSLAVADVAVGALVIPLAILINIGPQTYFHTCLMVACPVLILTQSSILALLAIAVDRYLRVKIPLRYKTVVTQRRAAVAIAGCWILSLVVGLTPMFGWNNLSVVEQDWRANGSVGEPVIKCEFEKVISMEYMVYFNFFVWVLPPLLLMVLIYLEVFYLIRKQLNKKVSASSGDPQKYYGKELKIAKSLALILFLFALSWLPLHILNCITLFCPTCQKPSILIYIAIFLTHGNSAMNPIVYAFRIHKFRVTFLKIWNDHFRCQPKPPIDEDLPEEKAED
Procedure, shortened: as §1

human A2B AR = target: T3, human A2B AR (Homo sapiens, UniProt P29275); experiment: Radioligand binding assay at human A2B AR vs. [^3H]PSB-603; details: for Ki: CHO cell membranes, n = 2 (n = 3 where marked a), read-out: Ki ± SEM, A2B vs. [^3H]PSB-603; for inhibition at 1 µM: at 1,000 nM
T3 construct: expressed in transfected cells; host or cells: CHO cells
T3 sequence (P29275 1-332): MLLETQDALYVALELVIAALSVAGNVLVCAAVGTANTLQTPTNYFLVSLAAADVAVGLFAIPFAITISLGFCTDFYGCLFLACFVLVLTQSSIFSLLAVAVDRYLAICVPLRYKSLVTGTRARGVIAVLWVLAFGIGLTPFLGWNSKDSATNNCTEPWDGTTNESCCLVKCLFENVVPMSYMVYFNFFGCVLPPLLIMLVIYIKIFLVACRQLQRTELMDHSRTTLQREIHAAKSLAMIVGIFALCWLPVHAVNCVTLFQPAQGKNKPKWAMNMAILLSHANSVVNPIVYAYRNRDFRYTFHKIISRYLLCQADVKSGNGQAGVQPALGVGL
Procedure, shortened: as §1

human A3 AR = target: T4, human A3 AR (Homo sapiens, UniProt P0DMS8); experiment: Radioligand binding assay at human A3 AR vs. [^3H]PSB-11; details: for Ki: CHO cell membranes, n = 2 (n = 3 where marked a), read-out: Ki ± SEM, A3 vs. [^3H]PSB-11; for inhibition at 10 µM: at 10,000 nM, read-out: % inhibition of radioligand binding at indicated concentration, A3 vs. [^3H]PSB-11
T4 construct: expressed in transfected cells; host or cells: CHO cells
T4 sequence (P0DMS8 1-318): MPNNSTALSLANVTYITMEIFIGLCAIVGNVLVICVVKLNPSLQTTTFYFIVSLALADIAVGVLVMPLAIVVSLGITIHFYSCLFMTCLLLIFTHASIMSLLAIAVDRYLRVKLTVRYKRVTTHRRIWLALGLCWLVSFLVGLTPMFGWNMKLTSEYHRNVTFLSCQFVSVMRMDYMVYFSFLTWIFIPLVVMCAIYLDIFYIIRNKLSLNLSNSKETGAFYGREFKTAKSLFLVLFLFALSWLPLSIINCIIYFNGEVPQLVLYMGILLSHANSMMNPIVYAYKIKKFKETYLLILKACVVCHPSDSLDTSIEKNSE
Procedure, shortened: as §1

recombinant human MAO-B = target: T5, recombinant human MAO-B (Homo sapiens, UniProt P27338); experiment: Monoamine oxidase assay (Amplex Red), MAO-B; format: biochemical; details: for inhibition at 10 µM: at 10,000 nM (10 μM), read-out: % inhibition at indicated concentration, Human MAO-B; for IC50: n = 3, read-out: IC50 ± SEM, Human MAO-B
T5 construct: purchased Sigma-Aldrich M7441; host or cells: baculovirus-infected insect cells
T5 sequence (P27338 1-520): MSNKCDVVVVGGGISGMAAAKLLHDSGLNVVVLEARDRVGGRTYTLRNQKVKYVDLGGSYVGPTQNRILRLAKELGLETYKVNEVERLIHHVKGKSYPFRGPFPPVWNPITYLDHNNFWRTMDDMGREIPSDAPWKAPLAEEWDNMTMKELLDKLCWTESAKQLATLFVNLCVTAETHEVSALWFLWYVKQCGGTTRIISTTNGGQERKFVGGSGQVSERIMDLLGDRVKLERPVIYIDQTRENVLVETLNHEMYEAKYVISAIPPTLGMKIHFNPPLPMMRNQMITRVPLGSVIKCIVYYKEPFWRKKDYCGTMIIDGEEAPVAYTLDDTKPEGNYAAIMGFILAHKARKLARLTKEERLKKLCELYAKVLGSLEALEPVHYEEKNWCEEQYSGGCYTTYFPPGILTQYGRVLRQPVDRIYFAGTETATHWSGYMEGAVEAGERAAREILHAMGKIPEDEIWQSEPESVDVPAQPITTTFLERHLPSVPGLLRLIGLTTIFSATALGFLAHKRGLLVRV
Procedure, shortened: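 Recombinant human MAO-A and MAO-B, expressed in baculovirus-infected insect cells, were assayed by Amplex Red fluorometric detection. Rat MAO-B inhibition used mitochondria-enriched fractions from male Sprague Dawley rat liver.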

[1] = read-out: % inhibition of radioligand binding at indicated concentration, A2B vs. [^3H]PSB-603

Compound	Ki (human A1 AR)	selectivity for the human A1 vs. the human A2A AR (human A1 AR)	Ki (rat A1 AR)	Ki (human A2B AR)	inhibition at 1 µM (human A2B AR; [1])	Ki (human A3 AR)	inhibition at 10 µM (human A3 AR)	inhibition at 10 µM (recombinant human MAO-B)	IC50 (recombinant human MAO-B)	inhibition at 1.5 µM (rat A1 AR; read-out: % inhibition of radioligand binding at indicated concentration, A1 vs. [^3H]CCPA, at 1,500 nM)	inhibition at 0.1 µM (human A2B AR; at 100 nM, read-out: % inhibition of radioligand binding at indicated concentration, A2B vs. [^3H]PSB-603)
CCn1c(=O)c2c(nc3n2CCN(Cc2ccccc2Br)C3)n(C)c1=O [Compound 14a, 8-(2-bromobenzyl)-3-ethyl-1-methyl-6,7,8,9-tetrahydropyrazino[2,1-f]purine-2,4(1H,3H)-dione]	41.7 ± 8.3 nM	> 10 fold	123 ± 34 nM	> 1000 nM	18%	> 10 µM	36%	37%	> 10 µM		
CCn1c(=O)c2c(nc3n2CCN(Cc2ccc(F)c(Br)c2)C3)n(CC)c1=O [Compound 15k, 8-(3-bromo-4-fluorobenzyl)-1,3-diethyl-6,7,8,9-tetrahydropyrazino[2,1-f]purine-2,4(1H,3H)-dione]	362 ± 98 nM		270 ± 60 nM	> 1000 nM	34%	7.19 µM		63%	< 10 µM		
CCn1c(=O)c2c(nc3n2CCN(Cc2cccc(Br)c2)C3)n(C)c1=O [Compound 14b, 8-(3-bromobenzyl)-3-ethyl-1-methyl-6,7,8,9-tetrahydropyrazino[2,1-f]purine-2,4(1H,3H)-dione]	70.7 ± 12.3 nM		28.8 ± 1.5 nM	> 1000 nM	9%	> 10 µM	39%	34%	> 10 µM		
CCn1c(=O)c2c(nc3n2CCN(Cc2cc(C(F)(F)F)ccc2Cl)C3)n(C)c1=O [Compound 14m, 8-(2-chloro-5-(trifluoromethyl)benzyl)-3-ethyl-1-methyl-6,7,8,9-tetrahydropyrazino[2,1-f]purine-2,4(1H,3H)-dione]	55.9 ± 8.3 nM	16 fold	76.2 ± 9 nM	> 1000 nM	3%	> 10 µM	35%		1.43 µM		
CCn1c(=O)c2c(nc3n2CCN(Cc2cccc(C(F)(F)F)c2)C3)n(C)c1=O [Compound 14e, 3-ethyl-1-methyl-8-(3-(trifluoromethyl)benzyl)-6,7,8,9-tetrahydropyrazino[2,1-f]purine-2,4(1H,3H)-dione]	156 ± 49 nM		49.1 ± 6.2 nM	> 100 nM		> 10 µM	38%	> 50%	< 10 µM		2%

Now from value to compound:

Ki (human A1 AR)	selectivity for the human A1 vs. the human A2A AR (human A1 AR)	Ki (rat A1 AR)	Ki (human A2B AR)	inhibition at 1 µM (human A2B AR; [1])	Ki (human A3 AR)	inhibition at 10 µM (human A3 AR)	inhibition at 10 µM (recombinant human MAO-B)	IC50 (recombinant human MAO-B)	inhibition at 1.5 µM (rat A1 AR; read-out: % inhibition of radioligand binding at indicated concentration, A1 vs. [^3H]CCPA, at 1,500 nM)	inhibition at 0.1 µM (human A2B AR; at 100 nM, read-out: % inhibition of radioligand binding at indicated concentration, A2B vs. [^3H]PSB-603)	Compound
1190 nM		> 1500 nM	> 1000 nM	23%	> 10 µM	14%		0.524 ± 0.026 µM	25%		CCn1c(=O)c2c(nc3n2CCN(Cc2cc(F)c(F)c(F)c2)C3)n(CC)c1=O [Compound 15r, 1,3-diethyl-8-(3,4,5-trifluorobenzyl)-6,7,8,9-tetrahydropyrazino[2,1-f]purine-2,4(1H,3H)-dione]
75.4 ± 16.1 nM		33.5 ± 5.6 nM	> 1000 nM	24%	13.3 µM			1.31 µM			CCn1c(=O)c2c(nc3n2CCN(Cc2cc(Br)ccc2F)C3)n(CC)c1=O [Compound 15l, 8-(5-bromo-2-fluorobenzyl)-1,3-diethyl-6,7,8,9-tetrahydropyrazino[2,1-f]purine-2,4(1H,3H)-dione]
207 ± 48 nM		89.6 ± 21.4 nM	> 1000 nM	23%	4.72 µM		66%	< 10 µM			CCn1c(=O)c2c(nc3n2CCN(Cc2cc(Cl)cc(Cl)c2)C3)n(CC)c1=O [Compound 15m, 8-(3,5-dichlorobenzyl)-1,3-diethyl-6,7,8,9-tetrahydropyrazino[2,1-f]purine-2,4(1H,3H)-dione]
110 ± 4 nM		153 ± 10 nM	> 1000 nM	3%	> 10 µM	25%	59%	< 10 µM			C#CCn1c(=O)c2c(nc3n2CCN(Cc2cc(C(F)(F)F)ccc2Cl)C3)n(C)c1=O [Compound 19b, 8-(2-chloro-5-(trifluoromethyl)benzyl)-1-methyl-3-propargyl-6,7,8,9-tetrahydropyrazino[2,1-f]purine-2,4(1H,3H)-dione]
